Literature values in patent publication US20060093571A1, “Hair and skin protecting compositions based on esters or ethers of betulin” (priority 2004, published 2006).

Columns and labels:
elastase = target: T1, elastase (Homo sapiens, UniProt P08246); details: known from literature
T1 sequence (P08246 30-247 limits assumed): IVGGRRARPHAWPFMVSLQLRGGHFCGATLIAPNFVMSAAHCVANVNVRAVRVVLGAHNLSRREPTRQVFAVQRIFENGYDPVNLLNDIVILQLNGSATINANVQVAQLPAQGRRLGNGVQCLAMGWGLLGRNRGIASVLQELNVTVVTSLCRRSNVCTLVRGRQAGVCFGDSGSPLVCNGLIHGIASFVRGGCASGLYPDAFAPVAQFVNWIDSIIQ

SMILES | solubility in polar and non-polar solvents | inhibition of enzymatic activity of elastase (elastase)
C=C(C)[C@@H]1CC[C@]2(CO)CC[C@]3(C)[C@H](CC[C@@H]4[C@@]5(C)CC[C@H](O)C(C)(C)[C@@H]5CC[C@]43C)[C@@H]12 [Betulin] | poor solubility | inhibit
C=C(C)[C@@H]1CC[C@]2(C(=O)O)CC[C@]3(C)[C@H](CC[C@@H]4[C@@]5(C)CC[C@H](O)C(C)(C)[C@@H]5CC[C@]43C)[C@@H]12 [betulinic acid] | poor solubility | –
CC1(C)CC[C@]2(C(=O)O)CC[C@]3(C)C(=CC[C@@H]4[C@@]5(C)CC[C@H](O)C(C)(C)[C@@H]5CC[C@]43C)[C@@H]2C1 [oleanolic acid] | poor solubility | inhibit
C[C@H]1[C@H](C)CC[C@]2(C(=O)O)CC[C@]3(C)C(=CC[C@@H]4[C@@]5(C)CC[C@H](O)C(C)(C)[C@@H]5CC[C@]43C)[C@H]12 [ursolic acid] | poor solubility | inhibit
